Holding throughout (test): NCI tumour cell line growth inhibition, 48 h
In assay [1] the test system is OVCAR-4 ovarian.
The test system of assay [2] is SN12C renal.
Assay [3] has as its system HCT-15 colon.
Assay [4] relates to UACC-257 melanoma.
The subject of assay [5] is SF-295 CNS.
In assay [6] the test system is SR leukemia.
Assay [7] relates to KM12 colon.
Assay [8] concerns OVCAR-8 ovarian.
The test system of assay [9] is MOLT-4 leukemia.
For assay [10], the system named is A498 renal.

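Step 1: Grow cells in 96-well plates. Step 2: Expose to compound for 48 hours at 5 concentrations. Step 3: Interpolate endpoints linearly; if unreached, use highest concentration. GI50 is the concentration that inhibits growth by half. TGI is the concentration that stops growth completely.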

`O=C(CN1CCN(c2cc3c(cc2F)c(=O)c(C(=O)O)cn3C2CC2)CC1)Nc1ccc(C(=O)/C=C/c2ccccc2)cc1`: the GI50 was 9.47 µM in assay [1]; 3.02 µM in assay [2]; 3.68 µM in assay [3]; 3.9 µM in assay [4]; 2.11 µM in assay [5]; 1.54 µM in assay [6]. Besides, the GI50 in assay [7] is 4.11 µM; in assay [8], 3.07 µM; in [9] it was 5.13 µM; in assay [10], 1.28 µM. Also, the TGI was more than 100 µM in assay [1]; more than 100 µM in assay [2]; more than 100 µM in [3]; 90.8 µM in [4]; 6.25 µM in assay [5]; 6.1 µM in [6]. Also, the TGI was more than 100 µM in assay [7], more than 100 µM in assay [8], more than 100 µM in assay [9] and 7.37 µM in assay [10].
With `CN(C)/C=C/C(=O)c1cccc(C(=O)/C=C/N(C)C)n1`, the TGI in assay [1], in assay [2], in assay [3], in assay [4], in assay [5] and in assay [6] was more than 100 µM each time. Further, the TGI in assay [7], in assay [8], in assay [9] and in assay [10] was more than 100 µM in each case.
For the molecule `Cc1cccc(Cc2cnc(NC(=O)/C=C/c3ccco3)s2)c1`, the GI50 in [1] was 1.59 µM; in assay [2], 0.073 µM; in assay [3] it was 0.0427 µM; in assay [4], more than 100 µM; in [5] it was 0.0437 µM; in assay [6] it was 0.0342 µM. Also, the GI50 in assay [7] is 0.039 µM; in assay [8] it was 0.0535 µM; in assay [9], 0.0561 µM; in assay [10], 0.199 µM. Moreover, the TGI in assay [1], in assay [2], in [3], in [4], in assay [5] and in assay [6] was more than 100 µM throughout. Further, the TGI in [7] was more than 100 µM; in assay [8] it was more than 100 µM; in [9], more than 100 µM; in assay [10] it was 3.93 µM.
Regarding `CC(=O)O[C@H]1Cc2c([nH]c3ccccc23)[C@@H](c2ccc(Cl)cc2)N1C(=O)CCNC(C)(C)C`, the GI50 in assay [1] is 3.06 µM; in [2], 4.24 µM; in assay [3] it was 4.05 µM; in [4], 4.99 µM; in assay [5] it was 4.54 µM; in [6], 1.09 µM. Also, the GI50 is 4.33 µM in [7], 4.86 µM in [8], 2.16 µM in [9] and 1.9 µM in [10]. The TGI turned out to be 7.14 µM in [1]; 8.54 µM in assay [2]; 8.32 µM in [3]; 9.66 µM in [4]; 9.01 µM in assay [5]; 6.11 µM in assay [6]. Also, the TGI is 9.51 µM in assay [7], 9.45 µM in assay [8], 8.99 µM in assay [9] and 5.83 µM in [10].
On to `NC(=O)c1ccc(S(=O)(=NS(=O)(=O)c2ccccc2)c2ccc(C(N)=O)cc2)cc1`, for which the TGI in assay [1], in assay [2], in assay [3], in assay [4], in assay [5] and in assay [6] was more than 100 µM throughout. Further, the TGI in assay [7], in [8], in [9] and in assay [10] was more than 100 µM each time.
Regarding `CCC1C(=O)OCc2c1cc1n(c2=O)Cc2ccccc2-1` (configuration not stated), the TGI in assay [1], in assay [2], in assay [3], in [4], in assay [5] and in [6] was more than 100 µM each time. Also, the TGI in assay [7], in [8], in [9] and in assay [10] was more than 100 µM throughout.
Take `COC(=O)C1=C(c2cc(OC)c(OC)c(OC)c2)OC(c2cc(OC)c(OC)c(OC)c2)C1` (configuration not stated): the TGI in assay [1] was 70.6 µM; in assay [2] it was 55.1 µM; in assay [3], more than 100 µM; in [4], 51.5 µM; in [5], 51.1 µM; in assay [6] it was 60 µM. The TGI was 32.4 µM in assay [7], more than 100 µM in assay [8], 68.5 µM in [9] and 51.4 µM in assay [10].
Turning to `Clc1cc(-c2csc(Cl)c2)cs1`, the TGI in assay [1], in assay [2], in [3], in assay [4], in assay [5] and in assay [6] was more than 100 µM throughout. Moreover, the TGI in assay [7], in [8], in assay [9] and in assay [10] was more than 100 µM in each case.
On to `O=C(O)c1ccccc1/C=C1/Nc2ccccc2C1=O`, for which the TGI in assay [1], in [2], in [3], in assay [4], in assay [5] and in [6] was more than 100 µM each time. The TGI in [7], in [8], in [9] and in [10] was more than 100 µM each time.
For the molecule `NC(=S)c1cn(C2OC(CO)C(O)C2O)c2ncnc(N)c12` (configuration not stated), the GI50 in assay [1] is 0.081 µM; in assay [2] it was 0.201 µM; in [3], 0.191 µM; in [4] it was 0.166 µM; in [5], 0.287 µM; in assay [6], 0.0625 µM. For the same molecule, the GI50 in [7] was 0.0262 µM; in [8], 0.209 µM; in [9], 0.0386 µM; in assay [10], 0.535 µM. Besides, the TGI worked out at 4.21 µM in assay [1]; 12.5 µM in assay [2]; 0.571 µM in [4]; 3.07 µM in [5]; 0.205 µM in assay [7]; 0.261 µM in assay [9]. In addition, the TGI in assay [10] came to 3.01 µM.
For the molecule `Cc1cccc2c1C(=O)OC2(c1cccc2ccccc12)c1cccc2ccccc12`, the TGI in assay [1], in assay [2], in assay [3], in [4], in [5] and in assay [6] was more than 100 µM each time. The TGI in [7], in assay [8], in assay [9] and in [10] was more than 100 µM each time.
For the molecule `Cn1cc(C2=C(c3cn(C)c4cc(Cl)ccc34)C(=O)NC2=O)c2ccccc21`, the GI50 was 0.362 µM in assay [1]; 0.145 µM in [2]; 0.103 µM in assay [3]; 0.169 µM in [4]; 0.093 µM in assay [5]; 0.073 µM in [6]. Also, the GI50 in [7] is 0.106 µM; in assay [8], 0.117 µM; in [9] it was 0.345 µM; in assay [10], 0.0619 µM. For the same molecule, the TGI is more than 25 µM in assay [1]; more than 15.9 µM in assay [2]; more than 25 µM in [3]; more than 25 µM in [4]; more than 25 µM in [5]; 6.38 µM in assay [6]. The TGI in [7] was 4.35 µM; in [8], more than 25 µM; in assay [9], more than 25 µM; in assay [10] it was 0.928 µM.
Turning to `Cn1ccnc1C(=O)/C=C/c1ccc(CC(=O)Nc2cc(F)c(F)c(F)c2)cc1`, the GI50 is 2.25 µM in assay [1]; 1.4 µM in [2]; 1.03 µM in assay [3]; 3.59 µM in assay [4]; 6.63 µM in [5]; 0.861 µM in assay [6]. The GI50 was 1.58 µM in [7], 1.33 µM in [8], 0.84 µM in assay [9] and 3.58 µM in [10]. In addition, the TGI in [1] was more than 25 µM; in assay [2], 8.61 µM; in assay [3] it was 6.58 µM; in assay [4], 10.1 µM; in assay [5] it was more than 25 µM; in assay [6], 8.91 µM. Besides, the TGI was 5.51 µM in [7], more than 25 µM in assay [8], 12.1 µM in assay [9] and 7.65 µM in assay [10].
In the case of `N#CC(N)(C(=O)C(=O)NCCCNC(=O)C(=O)C(N)(C#N)c1ccc(Cl)cc1)c1ccc(Cl)cc1` (configuration not stated), the TGI in [1], in [2], in assay [3], in [4], in assay [5] and in assay [6] was more than 100 µM in each case. Besides, the TGI in assay [7], in [8], in assay [9] and in assay [10] was more than 100 µM in each case.
For the molecule `CCn1c(-c2nonc2N)nc2c(C#CC(C)(C)O)ncc(OCC3CCNCC3)c21`, the GI50 in [1] is more than 25 µM; in [2], 9.17 µM; in assay [3], 16.5 µM; in assay [4], more than 20.7 µM; in assay [5], 5.29 µM; in assay [6], 8.08 µM. Further, the GI50 in assay [7] is 7.58 µM; in assay [8], 9.68 µM; in [9], 8.3 µM; in [10], 0.384 µM. Also, the TGI in assay [1] was more than 25 µM; in [2] it was more than 25 µM; in assay [3], more than 25 µM; in assay [4], more than 25 µM; in [5] it was more than 25 µM; in assay [6], 24.4 µM. Further, the TGI in [7] was more than 25 µM; in assay [8], more than 25 µM; in assay [9], more than 25 µM; in assay [10], 12.7 µM.
For `CCC[CH2][Sn]1([CH2]CCC)[O]N=Cc2ccccc2[O]1`, the GI50 in [1] is 2.03 µM; in assay [2] it was 1.27 µM; in [3] it was 0.808 µM; in [4], 1.31 µM; in [5], 0.93 µM; in assay [6], 0.342 µM. The GI50 was 1.47 µM in assay [7], 0.89 µM in assay [8], 0.335 µM in assay [9] and 1.43 µM in [10]. The TGI in [1] amounted to 3.51 µM; in assay [2] it was 2.54 µM; in [3], 2.04 µM; in [4], 2.74 µM; in assay [5] it was 2.13 µM; in assay [6] it was 2.75 µM. Moreover, the TGI amounted to 2.78 µM in assay [7], 2.12 µM in assay [8], 1.9 µM in assay [9] and 2.8 µM in [10].
`CCN(CC)c1ccc(/C=C2/NC(=O)NC2=O)cc1`: the GI50 in assay [1] was 22.6 µM; in [2], 11.1 µM; in assay [3] it was 3.21 µM; in assay [4] it was 4.01 µM; in assay [5] it was 4.36 µM; in [6], 0.605 µM. In addition, the GI50 is 1.65 µM in assay [7], 14.7 µM in [8], 17.6 µM in assay [9] and 7.44 µM in [10]. For the same molecule, the TGI is more than 100 µM in assay [1]; more than 100 µM in assay [2]; more than 100 µM in [3]; more than 100 µM in [4]; more than 32.7 µM in assay [5]; more than 100 µM in assay [6]. The TGI was more than 24.2 µM in assay [7], more than 100 µM in [8], more than 100 µM in assay [9] and more than 89.3 µM in assay [10].
As to `O=[N+]([O-])C1(CO)COC2(OC1)c1ccccc1-c1ccccc12`, the TGI in assay [1] was more than 100 µM; in assay [2], more than 100 µM; in [3], more than 100 µM; in [4] it was more than 100 µM; in assay [5], more than 100 µM; in [6], 82.1 µM. The TGI in assay [7] was more than 100 µM; in assay [8] it was more than 100 µM; in assay [9], more than 85.2 µM; in assay [10], more than 100 µM.
Turning to `Nc1cc2ccncc2c2ccccc12`, the GI50 is 20.2 µM in assay [1]; 11.4 µM in assay [2]; 11.8 µM in assay [3]; 13.6 µM in [4]; 10.8 µM in [5]; 8.56 µM in [6]. The GI50 in assay [7] is 11.6 µM; in [8] it was 5.25 µM; in [9], 5.35 µM; in assay [10], 1.84 µM. Further, the TGI was more than 100 µM in assay [1]; more than 100 µM in [2]; more than 100 µM in [3]; 29.7 µM in assay [4]; 57.4 µM in assay [5]; 47.9 µM in assay [6]. The TGI is more than 100 µM in [7], more than 100 µM in [8], more than 100 µM in assay [9] and 13.7 µM in assay [10].

The record behind these values is PubChem BioAssay (NCI).
